{"source": "PubChem BioAssay AID1259407", "about": "(Chemical Carcinogenesis Research Information System (CCRIS), 2018)", "system": "CCRIS mutagenicity, Ames/micronucleus/aberration tests", "experiment": "CCRIS mutagenicity studies", "note": "Activity calls are given as the source filed them. The rule behind the calls is not given here."}
{"compound": "BrCCBr", "values": [{"measurement": "mutagenic call", "setting": "End Point: IN VITRO CHROMOSOMAL ABERRATIONS, Test System: CHL CELLS, Metabolic Activation: RAT, LIVER, S-9, SODIUM PHENOBARBITAL AND 5,6-BENZOFLAVONE", "value": "active; positive (structural changes)"}, {"measurement": "mutagenic call", "setting": "End Point: IN VITRO CHROMOSOMAL ABERRATIONS, Test System: CHO CELLS, Metabolic Activation: NONE", "value": "active; positive"}, {"measurement": "mutagenic call", "setting": "End Point: IN VITRO CHROMOSOMAL ABERRATIONS, Test System: CHO CELLS, Metabolic Activation: RAT, LIVER, S-9, AROCLOR 1254", "value": "active; positive"}, {"measurement": "mutagenic call", "setting": "Test System: AMES SALMONELLA TYPHIMURIUM, Strain/Indicator: TA97, Metabolic Activation: NONE, Method: STANDARD PLATE", "value": "active; positive"}, {"measurement": "mutagenic call", "setting": "Test System: AMES SALMONELLA TYPHIMURIUM, Strain/Indicator: TA97, Metabolic Activation: RAT, LIVER, S-9, AROCLOR 1254, Method: STANDARD PLATE", "value": "active; positive"}, {"measurement": "mutagenic call", "setting": "Test System: AMES SALMONELLA TYPHIMURIUM, Strain/Indicator: TA98, Metabolic Activation: NONE, Method: STANDARD PLATE", "value": "inactive; negative"}, {"measurement": "mutagenic call", "setting": "Test System: AMES SALMONELLA TYPHIMURIUM, Strain/Indicator: TA98, Metabolic Activation: RAT, LIVER, S-9, AROCLOR 1254, Method: STANDARD PLATE", "value": "active; positive"}, {"measurement": "mutagenic call", "setting": "Test System: AMES SALMONELLA TYPHIMURIUM, Strain/Indicator: TA100/NG-57, Metabolic Activation: CELL PRETREATMENT WITH GLUTATHIONE, Method: PREINCUBATION", "value": "active; positive"}, {"measurement": "mutagenic call", "setting": "Test System: AMES SALMONELLA TYPHIMURIUM, Strain/Indicator: TA100/NG-57, Metabolic Activation: NONE, Method: PREINCUBATION", "value": "inactive; negative"}, {"measurement": "mutagenic call", "setting": "Test System: AMES SALMONELLA TYPHIMURIUM, Strain/Indicator: TA100, Metabolic Activation: CELL PRETREATMENT WITH GLUTATHIONE, Method: PREINCUBATION", "value": "active; positive"}, {"measurement": "mutagenic call", "setting": "Test System: AMES SALMONELLA TYPHIMURIUM, Strain/Indicator: TA100, Metabolic Activation: NONE", "value": "active; positive"}, {"measurement": "mutagenic call", "setting": "Test System: AMES SALMONELLA TYPHIMURIUM, Strain/Indicator: TA100, Metabolic Activation: NONE, Method: PREINCUBATION", "value": "active; positive"}, {"measurement": "mutagenic call", "setting": "Test System: AMES SALMONELLA TYPHIMURIUM, Strain/Indicator: TA100, Metabolic Activation: NONE, Method: SUSPENSION/PLATE", "value": "active; positive"}, {"measurement": "mutagenic call", "setting": "Test System: AMES SALMONELLA TYPHIMURIUM, Strain/Indicator: TA100, Metabolic Activation: RAT, KIDNEY, S-9, AROCLOR 1254", "value": "active; positive"}, {"measurement": "mutagenic call", "setting": "Test System: AMES SALMONELLA TYPHIMURIUM, Strain/Indicator: TA100, Metabolic Activation: RAT, LIVER, HEPATOCYTES, Method: SUSPENSION/PLATE", "value": "active; positive"}, {"measurement": "mutagenic call", "setting": "Test System: AMES SALMONELLA TYPHIMURIUM, Strain/Indicator: TA100, Metabolic Activation: RAT, LIVER, S-9, AROCLOR 1254", "value": "active; positive"}, {"measurement": "mutagenic call", "setting": "Test System: AMES SALMONELLA TYPHIMURIUM, Strain/Indicator: TA100, Metabolic Activation: RAT, LIVER, S-9, AROCLOR 1254, Method: STANDARD PLATE", "value": "active; positive"}, {"measurement": "mutagenic call", "setting": "Test System: AMES SALMONELLA TYPHIMURIUM, Strain/Indicator: TA100, Metabolic Activation: RAT, LIVER, S-9, AROCLOR 1254 AND RAT, KIDNEY, S-9, AROCLOR 1254", "value": "active; positive"}, {"measurement": "mutagenic call", "setting": "Test System: AMES SALMONELLA TYPHIMURIUM, Strain/Indicator: TA100, Metabolic Activation: S-9 MIX, Method: STANDARD PLATE", "value": "active; positive"}, {"measurement": "mutagenic call", "setting": "Test System: AMES SALMONELLA TYPHIMURIUM, Strain/Indicator: TA102, Metabolic Activation: NONE, Method: STANDARD PLATE", "value": "inactive; negative"}, {"measurement": "mutagenic call", "setting": "Test System: AMES SALMONELLA TYPHIMURIUM, Strain/Indicator: TA104, Metabolic Activation: NONE, Method: STANDARD PLATE", "value": "inactive; negative"}, {"measurement": "mutagenic call", "setting": "Test System: AMES SALMONELLA TYPHIMURIUM, Strain/Indicator: TA104, Metabolic Activation: RAT, LIVER, S-9, AROCLOR 1254, Method: STANDARD PLATE", "value": "inactive; negative"}, {"measurement": "mutagenic call", "setting": "Test System: AMES SALMONELLA TYPHIMURIUM, Strain/Indicator: TA1530, Metabolic Activation: NONE, Method: SPOT", "value": "active; positive"}, {"measurement": "mutagenic call", "setting": "Test System: AMES SALMONELLA TYPHIMURIUM, Strain/Indicator: TA1535/NG-19, Metabolic Activation: CELL PRETREATMENT WITH GLUTATHIONE, Method: PREINCUBATION", "value": "active; positive"}, {"measurement": "mutagenic call", "setting": "Test System: AMES SALMONELLA TYPHIMURIUM, Strain/Indicator: TA1535/NG-19, Metabolic Activation: NONE, Method: PREINCUBATION", "value": "active; positive"}, {"measurement": "mutagenic call", "setting": "Test System: AMES SALMONELLA TYPHIMURIUM, Strain/Indicator: TA1535, Metabolic Activation: CELL PRETREATMENT WITH GLUTATHIONE, Method: PREINCUBATION", "value": "active; positive"}, {"measurement": "mutagenic call", "setting": "Test System: AMES SALMONELLA TYPHIMURIUM, Strain/Indicator: TA1535, Metabolic Activation: NONE, Method: PREINCUBATION", "value": "active; positive"}, {"measurement": "mutagenic call", "setting": "Test System: AMES SALMONELLA TYPHIMURIUM, Strain/Indicator: TA1535, Metabolic Activation: NONE, Method: STANDARD PLATE", "value": "active; positive"}, {"measurement": "mutagenic call", "setting": "Test System: AMES SALMONELLA TYPHIMURIUM, Strain/Indicator: TA1535, Metabolic Activation: RAT, KIDNEY, S-9, AROCLOR 1254", "value": "active; positive"}, {"measurement": "mutagenic call", "setting": "Test System: AMES SALMONELLA TYPHIMURIUM, Strain/Indicator: TA1535, Metabolic Activation: RAT, LIVER, S-9, AROCLOR 1254, Method: PREINCUBATION", "value": "active; positive"}, {"measurement": "mutagenic call", "setting": "Test System: AMES SALMONELLA TYPHIMURIUM, Strain/Indicator: TA1535, Metabolic Activation: RAT, LIVER, S-9, AROCLOR 1254, Method: STANDARD PLATE", "value": "active; positive"}, {"measurement": "mutagenic call", "setting": "Test System: AMES SALMONELLA TYPHIMURIUM, Strain/Indicator: TA1535, Metabolic Activation: RAT, LIVER, S-9, AROCLOR 1254 AND RAT, KIDNEY, S-9, AROCLOR 1254", "value": "active; positive"}, {"measurement": "mutagenic call", "setting": "Test System: AMES SALMONELLA TYPHIMURIUM, Strain/Indicator: TA1535, Metabolic Activation: RAT, LIVER, S-9, PHENOBARBITAL, Method: STANDARD PLATE", "value": "active; positive"}, {"measurement": "mutagenic call", "setting": "Test System: AMES SALMONELLA TYPHIMURIUM, Strain/Indicator: TA2638, Metabolic Activation: NONE, Method: STANDARD PLATE", "value": "inactive; negative"}, {"measurement": "mutagenic call", "setting": "Test System: AMES SALMONELLA TYPHIMURIUM, Strain/Indicator: YG7100, Metabolic Activation: NONE, Method: PREINCUBATION", "value": "active; positive"}, {"measurement": "mutagenic call", "setting": "Test System: AMES SALMONELLA TYPHIMURIUM, Strain/Indicator: YG7104, Metabolic Activation: NONE, Method: PREINCUBATION", "value": "active; positive"}, {"measurement": "mutagenic call", "setting": "Test System: AMES SALMONELLA TYPHIMURIUM, Strain/Indicator: YG7108, Metabolic Activation: NONE, Method: PREINCUBATION", "value": "active; positive"}, {"measurement": "mutagenic call", "setting": "Test System: AMES SALMONELLA TYPHIMURIUM, Strain/Indicator: YG7112, Metabolic Activation: NONE, Method: PREINCUBATION", "value": "active; positive"}, {"measurement": "mutagenic call", "setting": "Test System: AMES SALMONELLA TYPHIMURIUM, Strain/Indicator: YG7113, Metabolic Activation: NONE, Method: PREINCUBATION", "value": "active; positive"}, {"measurement": "mutagenic call", "setting": "Test System: AMES SALMONELLA TYPHIMURIUM, Strain/Indicator: YG7119, Metabolic Activation: NONE, Method: PREINCUBATION", "value": "active; positive"}, {"measurement": "mutagenic call", "setting": "Test System: CHINESE HAMSTER OVARY, Strain/Indicator: CHO-K1 (HPRT)/6-THIOGUANINE, Metabolic Activation: NONE, Method: SUSPENSION/PLATE", "value": "active; positive"}, {"measurement": "mutagenic call", "setting": "Test System: CHINESE HAMSTER OVARY, Strain/Indicator: CHO-K1-BH4 (HGPRT)/6-THIOGUANINE, Metabolic Activation: NONE", "value": "inactive; negative"}, {"measurement": "mutagenic call", "setting": "Test System: E. COLI, Strain/Indicator: K12(AB1157), Metabolic Activation: NONE, Method: SUSPENSION/PLATE", "value": "inactive; negative"}, {"measurement": "mutagenic call", "setting": "Test System: E. COLI, Strain/Indicator: K12(AB1157), Metabolic Activation: RAT, LIVER, S-9, PHENOBARBITAL AND BETA-NAPHTHOFLAVONE, Method: SUSPENSION/PLATE", "value": "inactive; negative"}, {"measurement": "mutagenic call", "setting": "Test System: E. COLI, Strain/Indicator: K12(AB1886) UVRA, Metabolic Activation: NONE, Method: SUSPENSION/PLATE", "value": "active; positive"}, {"measurement": "mutagenic call", "setting": "Test System: E. COLI, Strain/Indicator: K12(AB1886) UVRA, Metabolic Activation: RAT, LIVER, S-9, PHENOBARBITAL AND BETA-NAPHTHOFLAVONE, Method: SUSPENSION/PLATE", "value": "active; positive"}, {"measurement": "mutagenic call", "setting": "Test System: E. COLI, Strain/Indicator: K12(AB2480) RECA/UVRA, Metabolic Activation: NONE, Method: SUSPENSION/PLATE", "value": "inactive; negative"}, {"measurement": "mutagenic call", "setting": "Test System: E. COLI, Strain/Indicator: K12(AB2480) RECA/UVRA, Metabolic Activation: RAT, LIVER, S-9, PHENOBARBITAL AND BETA-NAPHTHOFLAVONE, Method: SUSPENSION/PLATE", "value": "inactive; negative"}, {"measurement": "mutagenic call", "setting": "Test System: E. COLI, Strain/Indicator: WP2 UVRA (PKM101), Metabolic Activation: NONE, Method: STANDARD PLATE", "value": "active; positive"}, {"measurement": "mutagenic call", "setting": "Test System: MOUSE LYMPHOMA, Strain/Indicator: L5178Y (TK+/TK-), Metabolic Activation: NONE, Method: SUSPENSION/PLATE", "value": "active; positive"}, {"measurement": "mutagenic call", "setting": "Test System: MOUSE LYMPHOMA, Strain/Indicator: L5178Y (TK+/TK-), Metabolic Activation: RAT, LIVER, S-9, AROCLOR 1254, Method: SUSPENSION/PLATE", "value": "active; positive"}]}
{"compound": "c1cc(OCC2CO2)ccc1Cc1ccc(OCC2CO2)cc1", "note": "(configuration not stated)", "values": [{"measurement": "mutagenic call", "setting": "End Point: In vitro micronucleus, Test System: HepG2 cells, Metabolic Activation: None", "value": "inactive; negative"}]}
